Experimental data: patent EP0312283A2, “Di-or tripeptide renin inhibitors containing lactam conformational restrictions in ACHPA” (Merck & Co., Inc., priority 1987, dated 1989)

Test system: human plasma renin
Experiment: In vitro inhibition of human plasma renin (Boger et al. assay)
Assay type: biochemical
Description: In vitro inhibition of human plasma renin was measured as described by Boger, et al., J. Med. Chem (1985) 28, 1779.
They were analyzed for purity by HPLC (30 minute gradient, 5% CH3CN-H2O to 95% CH3CN-H20 buffered with 0.1% H3PO4; C18 reverse phase column), and were analyzed for composition by C, H, and N combustion analysis. IC50 values were measured in vitro using the human plasma renin assay, as described by Boger et al. J. Med. Chem. (1985) 28, 1779.

- IC50: 7.7 nM
Substance: Boc-Phe-His-(ACHP-1-(2-Hydroxyethyl)-2-Pyrrolidinone [Example 3H]
